Results taken from patent US20120321694A1, “COMPOSITIONS AND USES” (priority 2010, published 2012).
Where no end group is shown, it is not given here. The star is where a group is joined. Pam3Cys = N-terminal lipid (lipidation), CCCCCCCCCCCCCCCC(=O)N[C@@H](CSCC(COC(=O)CCCCCCCCCCCCCCC)OC(=O)CCCCCCCCCCCCCCC)C(=O)*

Legend:
[1] = tested on: BV2 microglia cells; test: In vitro phagocytosis of Aβ1-42 in BV2 cells (Western blot); assay type: cell-based, mouse; settings: 5 μg/mL cytochalasin D, 30 min before; FIG. 16
Experimental: For total Aβ detection, 10-30 μg of cell extracts were separated on a precast 10-20% SDS polyacrylamide Tris-Tricine gel (Bio-Rad, Canada). Separated proteins were then transferred onto polyvinylidene fluoride (PVDF) membranes (PerkinElmer, Canada). Membrane were incubated in DPBS (Gibco, USA) at 90° C. for 10 min. […] Films were digitalized using a HP Scanjet 4370 (HP) and signal intensity was measured using ImageJ (version 1.44p, NIH).
BV2 microglia cells were seeded at 900000 cells/60 mm cell culture Petri dish 24 hours prior the experiment, and cultured in complete media (Dulbecco's Modified Eagle Medium (DMEM, Gibco, USA) supplemented with 10% fetal bovine serum (FBS) (Gibco, USA), 1 mM sodium pyruvate (Gibco, USA) and 100 U/mL of penicillin and 100 μg/mL of streptomycin (Gibco, USA)). […] Protein concentration in supernatant or cell extracts was then measured using the Bradford method (Coomassie Plus, The better Bradford assay reagent, Thermoscientific, USA) accordingly to the manufacturer recommendation and equal amount of protein were then analyzed by Western blot. […]

[2] = tested on: Aβ42; test: Anti-Aβ42 immunogenicity in amyloid deposition mouse model; assay type: in vivo, TASTPM mice; settings: 12 injections, intramuscular route; FIG. 29
[3] = tested on: TASTPM mice; test: T-water maze in TASTPM mice; assay type: in vivo; settings: 12 weekly i.m. injections; vs PBS; FIG. 30
Experimental: To determine whether a TLR2 agonist will improve the cognitive impairment in TASTPM mice, the Pam3CysLip adjuvant fused to the Aβ1-6 peptide was injected 12 times at weekly basis using the intramuscular route and the memory was assessed using the T-water maze test. […] TASTPM mice have received one a week for a period of 12 weeks the following treatment: PBS or mice have received once a week for a period of 12 weeks the following treatment: PBS or of Pam3CysLip Aβ1-6 peptide.

[4] = tested on: TASTPM mice; test: Survival of TASTPM mice; assay type: in vivo; settings: weekly injections, followed for 112 days; PBS 13 out 25; FIG. 31
Text: The usage of the TLR2 agonist, i.e. Pam3CysLip Aβ1-6 peptide, improves the survival rate of TASTPM mouse model. 23 out of 25 mice survived after weekly injections of Pam3CysLip Aβ1-6 peptide compared to PBS injected animals in which only 13 out 25 TASTPM mice survived (followed for 112 days).

Row | Compound | effect on 2E7-stimulated cellular uptake of Aβ1-42 [1] | anti Aβ42 specific immunogenicity [2] | T-water maze, right-left discrimination tests (working memory) [3] | mice survived [4]
1 | C=C1[C@@H](C)[C@H]2[C@H](Cc3ccccc3)NC(=O)[C@]23[C@H](OC(C)=O)/C=C/[C@@](C)(O)C(=O)[C@@H](C)C/C=C/[C@H]3[C@@H]1O [cytochalasin D] | further inhibited |  |  | 
2 | Pam3Cys—SQ EPAAPAAEAT PAAEAPDAEFRH (Pam3Cys-SQEPAAPAAEATPAAEAPDAEFRH) [Pam3CysLip Aβ1-6 peptide] |  | High and specific anti Aβ42 specific immunogenicity | trend of improvement | 23 out of 25
